Patent US20220194935A1, “PHENETHYL SUBSTITUTED IMIDAZO[4,5-C]QUINOLINE COMPOUNDS WITH AN N-1 BRANCHED GROUP” (3M INNOVATIVE PROPERTIES COMPANY, priority 2019, published 2022)

Tests used:
human TLR7 = molecular target: T1, human TLR7 (Homo sapiens, UniProt Q9NYK1); test: TLR Activation and Specificity, HEK-BLUE-hTLR7 SEAP reporter cells; type: cell-based; conditions: 16-20 hours, at least 2× vehicle control, tested 0.01-30 micromolar
T1 construct: host or cells: HEK293 (HEK-BLUE-hTLR7)
T1 sequence (Q9NYK1 27-1049): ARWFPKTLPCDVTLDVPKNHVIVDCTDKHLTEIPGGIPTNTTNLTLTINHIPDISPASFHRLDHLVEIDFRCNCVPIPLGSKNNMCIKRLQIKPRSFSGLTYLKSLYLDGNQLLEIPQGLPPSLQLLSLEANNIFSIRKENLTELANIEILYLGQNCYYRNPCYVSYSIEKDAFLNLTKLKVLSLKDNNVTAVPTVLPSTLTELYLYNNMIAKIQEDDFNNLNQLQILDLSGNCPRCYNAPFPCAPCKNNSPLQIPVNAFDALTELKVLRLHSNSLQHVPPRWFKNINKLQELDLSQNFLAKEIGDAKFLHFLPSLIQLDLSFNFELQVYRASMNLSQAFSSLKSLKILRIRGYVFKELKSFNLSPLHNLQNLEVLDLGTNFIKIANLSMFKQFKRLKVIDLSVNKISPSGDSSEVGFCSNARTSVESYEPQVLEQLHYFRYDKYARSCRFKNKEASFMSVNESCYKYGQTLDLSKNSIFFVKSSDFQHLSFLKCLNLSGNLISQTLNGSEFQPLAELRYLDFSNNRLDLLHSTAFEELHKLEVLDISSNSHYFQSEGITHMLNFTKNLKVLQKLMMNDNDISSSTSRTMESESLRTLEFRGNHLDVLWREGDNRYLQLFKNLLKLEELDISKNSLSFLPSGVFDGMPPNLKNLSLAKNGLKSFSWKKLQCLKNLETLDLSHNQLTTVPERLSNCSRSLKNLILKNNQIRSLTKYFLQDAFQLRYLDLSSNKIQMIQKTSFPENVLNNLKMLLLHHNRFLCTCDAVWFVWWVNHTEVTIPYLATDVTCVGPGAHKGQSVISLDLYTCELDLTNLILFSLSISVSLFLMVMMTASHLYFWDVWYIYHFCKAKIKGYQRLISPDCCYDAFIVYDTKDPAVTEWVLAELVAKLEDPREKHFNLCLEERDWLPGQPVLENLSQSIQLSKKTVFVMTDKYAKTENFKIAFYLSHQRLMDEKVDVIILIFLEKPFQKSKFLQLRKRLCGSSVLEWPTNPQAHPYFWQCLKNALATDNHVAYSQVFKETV
Procedure: (§1) HEK-BLUE-hTLR7 or hTLR8 reporter cells were obtained from InvivoGen, San Diego, Calif. According to the manufacturer's description, these reporter cells were prepared by co-transfection of HEK293 cells with an inducible secreted embryonic alkaline phosphatase (SEAP) reporter gene and either the human TLR7 or TLR8 gene. The SEAP reporter gene was placed under the control of an IFN-β minimal promoter fused to five NF-κB and AP-1-binding sites. In the presence of a TLR ligand, activation of NF-κB and AP-1 occurs, resulting in a corresponding increase in SEAP levels.
(§2) In the assay, the HEK cells were grown and maintained using standard cell culture techniques in a growth medium that contained Dulbecco's Modified Eagle Medium (ThermoFisher Scientific Incorporated, Waltham, Mass.) supplemented with 1% penicillin/streptomycin and 10% heat-inactivated Gibco fetal bovine serum (ThermoFisher Scientific). Each compound was solubilized in DMSO to create a 3 millimole (mM) stock solution. The stock solution was then further diluted with the growth medium to prepare serial dilutions. Each test compound was tested at a concentration of 30, 10, 3.3, 1.1, 0.37, 0.12, 0.04, and 0.01 micromolar using a 96-well format with 5×10^4 cells and 200 microliters of growth medium per well.
(§3) For each compound, hTLR7, hTLR8, and their respective null control HEK cells were screened. DMSO serially diluted into the growth medium served as the vehicle control. Cell culture supernatants containing the SEAP reporter were collected after an incubation period of 16-20 hours in a cell culture incubator (37° C. and 5% CO2), and either analyzed immediately or stored at −80° C. SEAP levels were measured using the colorimetric enzyme assay (QUANTI-BLUE (InvivoGen) according to manufacturer's instructions.
(§4) Specifically, the minimum effective concentration of each compound (micromolar) was determined as the lowest concentration of the compound that produced a SEAP expression response at least 2× greater than that observed with the vehicle control wells.

human TLR8 = molecular target: T2, human TLR8 (Homo sapiens, UniProt Q9NR97); test: TLR Activation and Specificity, HEK-BLUE-hTLR8 SEAP reporter cells; type: cell-based; conditions: 16-20 hours, at least 2× vehicle control, tested 0.01-30 micromolar
T2 construct: host or cells: HEK293 (HEK-BLUE-hTLR8)
T2 sequence (Q9NR97 27-1041): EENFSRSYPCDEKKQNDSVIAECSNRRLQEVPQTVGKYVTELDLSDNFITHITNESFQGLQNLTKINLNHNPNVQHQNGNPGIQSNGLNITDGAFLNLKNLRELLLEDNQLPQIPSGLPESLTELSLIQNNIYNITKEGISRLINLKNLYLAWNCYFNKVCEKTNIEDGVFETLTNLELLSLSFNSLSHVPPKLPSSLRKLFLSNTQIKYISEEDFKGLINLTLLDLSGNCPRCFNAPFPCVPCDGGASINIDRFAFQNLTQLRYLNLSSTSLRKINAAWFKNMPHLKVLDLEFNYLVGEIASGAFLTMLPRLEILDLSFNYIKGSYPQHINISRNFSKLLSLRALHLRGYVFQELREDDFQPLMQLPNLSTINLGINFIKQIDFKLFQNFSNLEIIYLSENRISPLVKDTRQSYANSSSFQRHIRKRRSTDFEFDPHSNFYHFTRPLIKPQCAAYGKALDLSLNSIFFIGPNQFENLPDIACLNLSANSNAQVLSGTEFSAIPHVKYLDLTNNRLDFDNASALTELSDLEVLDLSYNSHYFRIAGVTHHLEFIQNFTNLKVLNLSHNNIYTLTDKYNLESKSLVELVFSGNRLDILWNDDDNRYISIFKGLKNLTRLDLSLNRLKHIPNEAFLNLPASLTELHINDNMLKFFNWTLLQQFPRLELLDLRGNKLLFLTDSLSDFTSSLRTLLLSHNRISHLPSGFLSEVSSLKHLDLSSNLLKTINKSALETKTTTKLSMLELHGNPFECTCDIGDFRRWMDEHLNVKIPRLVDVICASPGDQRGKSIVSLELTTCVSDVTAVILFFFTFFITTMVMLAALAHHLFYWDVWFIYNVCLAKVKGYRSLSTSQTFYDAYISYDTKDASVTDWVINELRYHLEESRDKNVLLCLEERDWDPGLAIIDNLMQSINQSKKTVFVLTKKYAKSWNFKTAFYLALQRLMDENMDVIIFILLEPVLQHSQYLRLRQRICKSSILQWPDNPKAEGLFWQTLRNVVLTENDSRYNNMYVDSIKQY
Procedure: as §1, §2, §3, §4

Row | Compound | MEC to Produce TLR Activation, TLR 7 (human TLR7) [µM] | MEC to Produce TLR Activation, TLR 8 (human TLR8) [µM]
1 | Nc1nc2ccccc2c2c1ncn2CCc1ccccc1 [Comparative Example 1, 1-phenethyl-1H-imidazo[4,5-c]quinolin-4-amine, reference compound] | 1.1 | >30
2 | CCCC[C@H](Cc1ccccc1)n1cnc2c(N)nc3ccccc3c21 [Example 2, 1-[(1R)-1-benzylpentyl]imidazo[4,5-c]quinolin-4-amine] | ≤0.01 | 10
3 | CCOC[C@@H](Cc1ccccc1)n1cnc2c(N)nc3ccccc3c21 [Example 4, 1-[(1R)-1-benzyl-2-ethoxy-ethyl]imidazo[4,5-c]quinolin-4-amine] | 1.1 | >30
4 | CCOC[C@H](Cc1ccccc1)n1cnc2c(N)nc3ccccc3c21 [Example 6, 1-[(1S)-1-benzyl-2-ethoxy-ethyl]imidazo[4,5-c]quinolin-4-amine] | ≤0.01 | 3.3
5 | CCCCOc1ccc(C[C@@H](CCCC)n2cnc3c(N)nc4ccccc4c32)cc1 [Example 7, 1-[(1R)-1-[(4-butoxyphenyl)methyl]pentyl]imidazo[4,5-c]quinolin-4-amine] | ≤0.01 | 10

Second part, the compound after the results:

Row | MEC to Produce TLR Activation, TLR 7 (human TLR7) [µM] | MEC to Produce TLR Activation, TLR 8 (human TLR8) [µM] | Compound
6 | 0.37 | >30 | C[C@H](Cc1ccccc1)n1cnc2c(N)nc3ccccc3c21 [Example 1, 1-[(1R)-1-methyl-2-phenyl-ethyl]imidazo[4,5-c]quinolin-4-amine]
7 | 1.1 | >30 | COC[C@@H](Cc1ccccc1)n1cnc2c(N)nc3ccccc3c21 [Example 3, 1-[(1R)-1-benzyl-2-methoxy-ethyl]imidazo[4,5-c]quinolin-4-amine]
8 | ≤0.01 | 10 | COC[C@H](Cc1ccccc1)n1cnc2c(N)nc3ccccc3c21 [Example 5, 1-[(1S)-1-benzyl-2-methoxy-ethyl]imidazo[4,5-c]quinolin-4-amine]
